Laboratory results as given in ChEMBL document CHEMBL4308841, “Synthesis, in vitro antiproliferative activity, and kinase inhibitory effects of pyrazole-containing diarylureas and diarylamides” (Eur J Med Chem, 2018).

Legend:
A498 [1] = assay: Growth inhibition of human A498 cells assessed as cell growth at 0.1 uM incubated for 48 hrs by sulforhodamine B assay relative to control; assay type: functional; details: A498, 48 h, read-out: Activity
OVCAR-8 = assay: Growth inhibition of human OVCAR8 cells assessed as cell growth at 1 uM incubated for 48 hrs by sulforhodamine B assay relative to control; assay type: functional; details: OVCAR-8, 48 h, read-out: Activity
OVCAR-5 [2] = assay: Growth inhibition of human OVCAR5 cells assessed as cell growth at 0.01 uM incubated for 48 hrs by sulforhodamine B assay relative to control; assay type: functional; details: OVCAR-5, 48 h, read-out: Activity
NCI-H522 = assay: Growth inhibition of human NCI-H522 cells assessed as cell growth at 100 uM incubated for 48 hrs by sulforhodamine B assay relative to control; assay type: functional; details: NCI-H522, 48 h, read-out: Activity
MOLT-4 = assay: Growth inhibition of human MOLT4 cells assessed as cell growth at 0.01 uM incubated for 48 hrs by sulforhodamine B assay relative to control; assay type: functional; details: MOLT-4, 48 h, read-out: Activity
CCRF-CEM = assay: Growth inhibition of human CCRF-CEM cells assessed as cell growth at 100 uM incubated for 48 hrs by sulforhodamine B assay relative to control; assay type: functional; details: read-out: Activity
SF-268 = assay: Growth inhibition of human SF268 cells assessed as cell growth at 0.01 uM incubated for 48 hrs by sulforhodamine B assay relative to control; assay type: functional; details: SF-268, 48 h, read-out: Activity
RPMI-8226 = assay: Growth inhibition of human RPMI8226 cells assessed as cell growth at 1 uM incubated for 48 hrs by sulforhodamine B assay relative to control; assay type: functional; details: RPMI-8226, 48 h, read-out: Activity
OVCAR-4 = assay: Growth inhibition of human OVCAR4 cells assessed as cell growth at 1 uM incubated for 48 hrs by sulforhodamine B assay relative to control; assay type: functional; details: OVCAR-4, 48 h, read-out: Activity
UO-31 = assay: Growth inhibition of human UO31 cells assessed as cell growth at 0.1 uM incubated for 48 hrs by sulforhodamine B assay relative to control; assay type: functional; details: UO-31, 48 h, read-out: Activity
PC-3 = assay: Growth inhibition of human PC3 cells assessed as cell growth at 1 uM incubated for 48 hrs by sulforhodamine B assay relative to control; assay type: functional; details: PC-3, 48 h, read-out: Activity
SK-MEL-5 [3] = assay: Growth inhibition of human SK-MEL-5 cells incubated for 48 hrs by sulforhodamine B assay; assay type: functional, cell-based; details: SK-MEL-5, 48 h
Malme-3M = assay: Growth inhibition of human MALME-3M cells incubated for 48 hrs by sulforhodamine B assay; assay type: functional, cell-based
A498 [4] = assay: Growth inhibition of human A498 cells assessed as cell growth at 1 uM incubated for 48 hrs by sulforhodamine B assay relative to control; assay type: functional; details: A498, 48 h, read-out: Activity
ACHN = assay: Growth inhibition of human ACHN cells incubated for 48 hrs by sulforhodamine B assay; assay type: functional, cell-based
SK-MEL-5 [5] = assay: Growth inhibition of human SK-MEL-5 cells assessed as cell growth at 1 uM incubated for 48 hrs by sulforhodamine B assay relative to control; assay type: functional; details: SK-MEL-5, 48 h, read-out: Activity
COLO 205 = assay: Growth inhibition of human COLO205 cells incubated for 48 hrs by sulforhodamine B assay; assay type: functional, cell-based; details: COLO 205, 48 h
HCT-15 [6] = assay: Growth inhibition of human HCT15 cells incubated for 48 hrs by sulforhodamine B assay; assay type: functional, cell-based; details: HCT-15, 48 h
SN12C [7] = assay: Growth inhibition of human SN12C cells assessed as cell growth at 100 uM incubated for 48 hrs by sulforhodamine B assay relative to control; assay type: functional; details: read-out: Activity
SK-MEL-5 [8] = assay: Growth inhibition of human SK-MEL-5 cells assessed as cell growth at 0.01 uM incubated for 48 hrs by sulforhodamine B assay relative to control; assay type: functional; details: SK-MEL-5, 48 h, read-out: Activity
NCI-H23 = assay: Growth inhibition of human NCI-H23 cells assessed as cell growth at 1 uM incubated for 48 hrs by sulforhodamine B assay relative to control; assay type: functional; details: NCI-H23, 48 h, read-out: Activity
UACC-62 [9] = assay: Growth inhibition of human UACC62 cells incubated for 48 hrs by sulforhodamine B assay; assay type: functional, cell-based; details: UACC-62, 48 h
UACC-62 [10] = assay: Growth inhibition of human UACC62 cells assessed as cell growth at 0.1 uM incubated for 48 hrs by sulforhodamine B assay relative to control; assay type: functional; details: UACC-62, 48 h, read-out: Activity
OVCAR-5 [11] = assay: Growth inhibition of human OVCAR5 cells assessed as cell growth at 100 uM incubated for 48 hrs by sulforhodamine B assay relative to control; assay type: functional; details: OVCAR-5, 48 h, read-out: Activity
SN12C [12] = assay: Growth inhibition of human SN12C cells assessed as cell growth at 0.1 uM incubated for 48 hrs by sulforhodamine B assay relative to control; assay type: functional; details: read-out: Activity
MDA-MB-468 = assay: Growth inhibition of human MDA-MB-468 cells assessed as cell growth at 100 uM incubated for 48 hrs by sulforhodamine B assay relative to control; assay type: functional; details: MDA-MB-468, 48 h, read-out: Activity
LOX IMVI = assay: Growth inhibition of human LOXIMVI cells assessed as cell growth at 0.1 uM incubated for 48 hrs by sulforhodamine B assay relative to control; assay type: functional; details: read-out: Activity
HCT-15 [13] = assay: Growth inhibition of human HCT15 cells assessed as cell growth at 1 uM incubated for 48 hrs by sulforhodamine B assay relative to control; assay type: functional; details: HCT-15, 48 h, read-out: Activity
M14 = assay: Growth inhibition of human M14 cells assessed as cell growth at 1 uM incubated for 48 hrs by sulforhodamine B assay relative to control; assay type: functional; details: M14, 48 h, read-out: Activity
SK-MEL-5 [14] = assay: Growth inhibition of human SK-MEL-5 cells assessed as cell growth at 0.1 uM incubated for 48 hrs by sulforhodamine B assay relative to control; assay type: functional; details: SK-MEL-5, 48 h, read-out: Activity
[15] = read-out: LC50 (the source's name)
[16] = read-out: pLC50 (the source's name) (converted)

O=C(Nc1cccc(-n2cc(-c3ccncc3)c(-c3cc(O)cc(Cl)c3)n2)c1)Nc1ccc(Cl)c(C(F)(F)F)c1
growth at 0.1 µM (A498 [1]): 50% | growth at 1 µM (OVCAR-8): 99% | growth at 0.01 µM (OVCAR-5 [2]): 98% | growth at 100 µM (NCI-H522): -95% | growth at 0.01 µM (MOLT-4): 100% | growth at 100 µM (CCRF-CEM): -3% | growth at 0.01 µM (SF-268): 95% | growth at 1 µM (RPMI-8226): 88% | growth at 1 µM (OVCAR-4): 105% | growth at 0.1 µM (UO-31): 83% | growth at 1 µM (PC-3): 83% | GI50 (SK-MEL-5 [3]; read-out: GI50): 1.59 µM | CC50 (SK-MEL-5 [3]; [15]): 51.5 µM | TGI (SK-MEL-5 [3]; read-out: TGI): 32.3 µM | GI50 (SK-MEL-5 [3]; read-out: pGI50 (converted)): 1.7 µM | CC50 (SK-MEL-5 [3]; [16]): 6.17 µM | TGI (SK-MEL-5 [3]; read-out: pTGI (converted)): 3.24 µM | GI50 (Malme-3M; read-out: GI50): 2.37 µM | CC50 (Malme-3M; [15]): 24.3 µM | TGI (Malme-3M; read-out: TGI): 62.5 µM | GI50 (Malme-3M; read-out: pGI50 (converted)): 2.34 µM | CC50 (Malme-3M; [16]): 24.5 µM | TGI (Malme-3M; read-out: pTGI (converted)): 6.31 µM | growth at 1 µM (A498 [4]): 92% | GI50 (ACHN; read-out: GI50): 3.1 µM | CC50 (ACHN; [15]): > 100 µM | TGI (ACHN; read-out: TGI): 15.3 µM | GI50 (ACHN; read-out: pGI50 (converted)): 3.09 µM | CC50 (ACHN; [16]): > 100 µM | TGI (ACHN; read-out: pTGI (converted)): 15.1 µM | growth at 1 µM (SK-MEL-5 [5]): 90% | GI50 (COLO 205; read-out: GI50): 2.25 µM | CC50 (COLO 205; [15]): 15.9 µM | TGI (COLO 205; read-out: TGI): 51.7 µM | GI50 (COLO 205; read-out: pGI50 (converted)): 2.82 µM | CC50 (COLO 205; [16]): 19.1 µM | TGI (COLO 205; read-out: pTGI (converted)): 5.13 µM | GI50 (HCT-15 [6]; read-out: GI50): 2.21 µM | CC50 (HCT-15 [6]; [15]): 50.6 µM | TGI (HCT-15 [6]; read-out: TGI): 60.1 µM | GI50 (HCT-15 [6]; read-out: pGI50 (converted)): 2.82 µM | CC50 (HCT-15 [6]; [16]): 60.3 µM | TGI (HCT-15 [6]; read-out: pTGI (converted)): 6.03 µM | growth at 100 µM (SN12C [7]): -32% | growth at 0.01 µM (SK-MEL-5 [8]): 97% | growth at 1 µM (NCI-H23): 96% | IC50 (UACC-62 [9]): 2.08 µM | GI50 (UACC-62 [9]; read-out: GI50): 2 µM | CC50 (UACC-62 [9]; [15]): 91.9 µM | TGI (UACC-62 [9]; read-out: TGI): 43.8 µM | GI50 (UACC-62 [9]; read-out: pGI50 (converted)): 2.09 µM | CC50 (UACC-62 [9]; [16]): 9.12 µM | TGI (UACC-62 [9]; read-out: pTGI (converted)): 4.37 µM | growth at 0.1 µM (UACC-62 [10]): 102% | growth at 100 µM (OVCAR-5 [11]): -55% | growth at 0.1 µM (SN12C [12]): 100% | growth at 100 µM (MDA-MB-468): -29% | growth at 0.1 µM (LOX IMVI): 95% | growth at 1 µM (HCT-15 [13]): 90% | growth at 1 µM (M14): 83% | growth at 0.1 µM (SK-MEL-5 [14]): 98%
